Measurements: publication PMC3513970 (Oncogene, 2011)
pIC50, pKd: −log10 of the molar value. “And” between values parts separate entries of the source, which are not always exact repeats. Equal entries are not always repeated.

How the values were obtained:
[1] = system: GFP-expressing K7M2 OS cells in lung slices; experiment: Ex vivo mouse lung organ culture; format: cell-based; details: 10 μM, vs DMSO 1%
[2] = biological target: PKCΙ phosphorylation of radixin (Homo sapiens, UniProt P35241); experiment: In vitro kinase assay: PKCΙ phosphorylation of radixin; format: biochemical; details: read-out: IC50, PKCΙ phosphorylation of radixin
[3] = system: K7M2 cells, K12 cells or HUVECs; experiment: Cell viability assays; format: cell-based; details: 10 μM; K7M2, K12, HUVEC; data not shown
Xenopus embryos = experiment: Xenopus embryo development assay; format: in vivo
[4] = system: MNNG-HOS lung metastasis in SCID/Beige mice; experiment: In vivo experimental lung metastasis model, MNNG-HOS cells; parameters: species or system mouse
[5] = system: K7M2 lung metastasis in BALB/c mice; experiment: In vivo experimental lung metastasis model, K7M2 cells; parameters: species or system mouse
[6] = biological target: endogenous ezrin in K7M2 OS cells (Mus musculus, UniProt P26040); experiment: Immunoprecipitation/immunoblotting of endogenous ezrin in K7M2 cells; format: cell-based, murine; details: 10 μM, 6 h
PKCΙ = biological target: T1, PKCΙ (Homo sapiens, UniProt P41743); experiment: Biacore direct interaction with PKCΙ; details: read-out: KD for binding to PKCΙ, data not shown
T1 sequence (P41743 1-596): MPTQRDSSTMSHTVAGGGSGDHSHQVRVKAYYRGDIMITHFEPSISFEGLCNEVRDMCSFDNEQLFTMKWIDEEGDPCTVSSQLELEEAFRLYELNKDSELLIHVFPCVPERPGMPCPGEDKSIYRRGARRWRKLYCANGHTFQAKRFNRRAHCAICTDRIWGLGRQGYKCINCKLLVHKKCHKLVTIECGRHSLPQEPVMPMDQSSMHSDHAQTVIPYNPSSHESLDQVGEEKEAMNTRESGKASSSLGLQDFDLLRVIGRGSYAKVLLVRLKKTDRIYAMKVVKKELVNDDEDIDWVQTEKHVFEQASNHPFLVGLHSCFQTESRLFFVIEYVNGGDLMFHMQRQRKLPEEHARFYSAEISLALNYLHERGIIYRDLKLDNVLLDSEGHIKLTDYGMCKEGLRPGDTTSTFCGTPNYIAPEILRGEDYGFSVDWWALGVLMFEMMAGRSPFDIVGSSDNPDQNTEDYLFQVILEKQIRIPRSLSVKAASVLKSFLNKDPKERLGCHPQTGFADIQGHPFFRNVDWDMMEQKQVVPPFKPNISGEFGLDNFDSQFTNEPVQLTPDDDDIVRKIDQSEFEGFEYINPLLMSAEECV

[7] = mouse
K7M2 cells [8] = experiment: Invasion of HUVEC monolayer by K7M2 cells; format: cell-based, murine; details: 10 μM, 5 h, vs DMSO (1%)
K12 cells = experiment: Invasion of HUVEC monolayer by K12 cells; format: cell-based, murine; details: 10 μM
PKCΙ, α and γ = experiment: Radioactive in vitro kinase profiling of PKC isoforms on non-specific substrate; format: biochemical; details: myelin basic protein substrate; maximum 100 μM
zebrafish embryos = experiment: Zebrafish embryo development assay
[9] = biological target: PKCΙ phosphorylation of moesin (Homo sapiens, UniProt P26038); experiment: In vitro kinase assay: PKCΙ phosphorylation of moesin; format: biochemical; details: read-out: IC50, PKCΙ phosphorylation of moesin
K7M2 cells [10] = experiment: Cell migration assay for synergy; format: cell-based, murine; details: combination of NSC305787 and NSC668394
actin = experiment: SPR binding to actin; details: read-out: KD for binding to actin; negative control; data not shown
recombinant WT ezrin = recombinant WT ezrin (Mus musculus, UniProt P26040); experiment: SPR direct binding to immobilized recombinant WT ezrin
recombinant WT ezrin, sequence (P26040 whole entry): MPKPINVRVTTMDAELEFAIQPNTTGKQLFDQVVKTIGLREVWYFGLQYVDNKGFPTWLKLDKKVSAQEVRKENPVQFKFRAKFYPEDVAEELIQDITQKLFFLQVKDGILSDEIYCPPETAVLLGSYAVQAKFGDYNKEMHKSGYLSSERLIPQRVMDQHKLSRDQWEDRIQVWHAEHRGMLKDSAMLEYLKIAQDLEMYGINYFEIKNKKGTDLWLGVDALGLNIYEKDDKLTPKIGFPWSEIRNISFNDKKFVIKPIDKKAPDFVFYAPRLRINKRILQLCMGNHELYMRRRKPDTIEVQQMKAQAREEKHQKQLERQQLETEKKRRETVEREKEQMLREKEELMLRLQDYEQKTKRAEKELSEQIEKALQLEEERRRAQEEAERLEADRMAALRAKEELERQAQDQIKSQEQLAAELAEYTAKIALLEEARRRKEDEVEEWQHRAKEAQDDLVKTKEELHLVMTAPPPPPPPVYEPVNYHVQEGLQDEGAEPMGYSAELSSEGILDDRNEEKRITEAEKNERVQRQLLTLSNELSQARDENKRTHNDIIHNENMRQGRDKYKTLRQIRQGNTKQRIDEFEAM

endogenous ezrin in K7M2 OS cells, sequence (P26040 whole entry): as above
PKCΙ phosphorylation of moesin, sequence (P26038 whole entry): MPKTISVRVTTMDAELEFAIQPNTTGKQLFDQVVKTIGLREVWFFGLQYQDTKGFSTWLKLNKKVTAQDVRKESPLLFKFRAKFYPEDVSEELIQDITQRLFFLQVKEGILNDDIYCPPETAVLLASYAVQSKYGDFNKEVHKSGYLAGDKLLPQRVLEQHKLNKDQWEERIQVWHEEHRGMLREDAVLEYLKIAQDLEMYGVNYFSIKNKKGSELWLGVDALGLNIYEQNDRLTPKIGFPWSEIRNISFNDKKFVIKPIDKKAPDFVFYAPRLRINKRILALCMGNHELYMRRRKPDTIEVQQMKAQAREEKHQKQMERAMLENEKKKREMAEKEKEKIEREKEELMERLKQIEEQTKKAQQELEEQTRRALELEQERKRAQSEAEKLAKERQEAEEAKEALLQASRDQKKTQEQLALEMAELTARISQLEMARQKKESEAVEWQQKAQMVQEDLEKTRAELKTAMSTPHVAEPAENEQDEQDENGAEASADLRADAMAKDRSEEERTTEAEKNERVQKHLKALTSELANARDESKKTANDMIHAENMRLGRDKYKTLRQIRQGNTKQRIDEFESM
PKCΙ phosphorylation of radixin, sequence (P35241 whole entry): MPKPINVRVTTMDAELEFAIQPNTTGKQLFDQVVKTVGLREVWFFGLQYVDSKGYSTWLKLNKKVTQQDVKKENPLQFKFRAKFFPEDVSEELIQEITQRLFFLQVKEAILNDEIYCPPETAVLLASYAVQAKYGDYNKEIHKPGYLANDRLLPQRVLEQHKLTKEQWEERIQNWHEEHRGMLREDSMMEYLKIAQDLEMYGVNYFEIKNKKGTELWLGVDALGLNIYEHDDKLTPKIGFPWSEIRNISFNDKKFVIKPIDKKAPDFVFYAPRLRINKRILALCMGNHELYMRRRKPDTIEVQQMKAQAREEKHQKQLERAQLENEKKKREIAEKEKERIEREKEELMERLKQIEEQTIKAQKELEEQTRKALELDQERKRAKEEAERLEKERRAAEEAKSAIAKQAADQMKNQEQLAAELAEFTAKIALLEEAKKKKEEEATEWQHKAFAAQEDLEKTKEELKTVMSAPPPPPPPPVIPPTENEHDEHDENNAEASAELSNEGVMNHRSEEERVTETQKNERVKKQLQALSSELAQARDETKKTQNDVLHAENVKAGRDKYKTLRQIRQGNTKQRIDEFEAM

OC(c1cc(C23CC4CC(CC(C4)C2)C3)nc2c(Cl)cc(Cl)cc12)C1CCCCN1 (centres unmarked) [NSC305787]
lung metastases growth of K7M2 cells in organ culture (GFP fluorescence) [1]: significantly inhibited | pIC50 [2]: 4.26 | cytotoxicity [3]: Neither compound was cytotoxic | Xenopus embryo phenotype at stage 12.5 (Xenopus embryos; 10 μM): gastrulation defects | Xenopus embryo phenotype by stage 37 (Xenopus embryos; 10 μM): delays in development and ventral defects | Xenopus embryo phenotype by stage 50 (Xenopus embryos; 10 μM): short and bent tails and reduced eyes | Xenopus embryo phenotype at high concentration (Xenopus embryos; 40 μM): severe gastrulation defects and embryonic death | median survival ([4]; MNNG-HOS tail vein, vehicle 50.5 days): 49 days | number of GFP-expressing metastatic foci in lung tissues ([4]; MNNG-HOS-injected mice): no differences | survival, control vs treatment groups ([4]; MNNG-HOS-injected mice): no difference in survival | number of GFP-expressing metastatic foci in lung tissues ([5]; K7M2-injected mice): significant decrease | overall survival vs vehicle group ([5]; K7M2, log-rank, P = 0.0337 (NSC305787), P = 0.0524 (NSC668394)): significantly different from that of the vehicle-treated group | phospho-ezrin levels in lung–liver–kidney–spleen–skin samples ([5]; treated vs control (DMSO) animals): did not observe any meaningful differences | T567 phosphorylation of endogenous ezrin [6]: inhibited | actin binding of endogenous ezrin [6]: inhibited | cellular ezrin levels [6]: without altering cellular ezrin levels | pKd (PKCΙ): 3.76 | in vivo tolerability [7]: very well tolerated in vivo without any obvious acute toxicity | invasion by K7M2 cells on HUVEC monolayer (K7M2 cells [8]): inhibited invasion | invasion by K12 cells on HUVEC monolayer (K12 cells): no effect on invasion | inhibition of PKC activity (PKCΙ, α and γ) (PKCΙ, α and γ): required higher concentration than that required to inhibit ezrin phosphorylation | zebrafish embryo phenotype (zebrafish embryos; 10 μM): mimicked the ezrin MO phenotype | embryos with epiboly defects (zebrafish embryos; 10 μM, 12 of 81 embryos): 15% | embryos with epiboly defects (zebrafish embryos; 20 μM, 71 of 71 embryos): 100% | pIC50 [9]: 5.03 | synergy between both compounds in cellular migration (K7M2 cells [10]): do not show any synergy | pKd (actin): 4.04 | binding kinetics on ezrin (recombinant WT ezrin; comparison of the two compounds): bound to and dissociated faster from ezrin than NSC668394 | pKd (recombinant WT ezrin; read-out: KD for binding to ezrin, average of five independent experiments): 5.23 and ~5.00
